# In publication PMC9669016, “First-in-human phase Ia study of the PI3Kα inhibitor CYH33 in patients with solid tumors” (Nature Communications, 2022):
# Read-outs that look alike come from different tables or passages of the source.
# Key:
# [1] = design: method as in Investigator's Brochure (IB) 12; conditions: rats, without concentration dependency; ref Investigator's Brochure (IB) 12; cited from earlier work
# CYP2C9 = system: CYP2C9; design: method as in Investigator's Brochure (IB) 12; conditions: up to 100 µM; ref Investigator's Brochure (IB) 12; cited from earlier work
# [2] = system: fasting blood glucose (FBG); assay: Pharmacodynamics: fasting blood glucose (FBG) change from baseline; format: in vivo, human; conditions: Cycle 1 Day 15 (C1D15), starting at 10 mg CYH33 and peaking at 60 mg
# Description: Since glucose metabolism is tightly regulated by PI3Kα[24], fasting blood glucose (FBG) levels were used as a PD marker.
# This is a phase I clinical study (ClinicalTrials.gov identifier: NCT03544905), including a phase Ia study of oral CYH33 monotherapy in patients with advanced solid tumors, and a phase Ib study of oral CYH33 monotherapy focused on several specific tumors. Here we report the results of the phase Ia study conducted at Sun Yat-sen University Cancer Center. The phase Ia study included dose-escalation stage and dose-expansion stage. […]
# Blood samples for PK evaluation were collected at: (1) during the single dose phase: on day 1 pre-dose and 0.5, 1, 2, 4, 8, 12, 24, 36, 48, and 72 h post-dose; (2) during the continuous dose phase: C1D1/Cycle 1 Day 28 pre-dose, and 0.5, 1, 2, 3, 4, 6, 8, 12, and 24 h post-dose; and C1D8/Day 15 pre-dose. Plasma concentrations of CYH33 and I27 were analyzed using a liquid chromatography-tandem mass spectrometry (LC/MS/MS) assay (Shimadzu Corporation, LC-30AD) with a lower limit of quantification (LLOQ) of 2.585 ng/mL and 1.0 ng/mL for CYH33 and I27, respectively. […]
# CYP1A2 = system: CYP1A2; design: method as in Investigator's Brochure (IB) 12; conditions: up to 100 µM; ref Investigator's Brochure (IB) 12; cited from earlier work
# CYP3A4 = system: CYP3A4; design: method as in Investigator's Brochure (IB) 12; conditions: up to 100 µM; ref Investigator's Brochure (IB) 12; cited from earlier work
# [3] = design: method as in Investigator's Brochure (IB) 12; conditions: dogs, without concentration dependency; ref Investigator's Brochure (IB) 12; cited from earlier work
# CHL = system: CHL; design: method as in Investigator's Brochure (IB) 12; conditions: ref Investigator's Brochure (IB) 12; cited from earlier work
# CYP2C19 = system: CYP2C19; design: method as in Investigator's Brochure (IB) 12; conditions: up to 100 µM; ref Investigator's Brochure (IB) 12; cited from earlier work
# [4] = design: method as in Study Protocol CYH33-101 Table 2; conditions: ref Study Protocol CYH33-101 Table 2, cited from earlier work
compound,measurement,setting,value
"COC(=O)Nc1cc(C(F)(F)F)c(-c2nc(N3CCOCC3)c3cc(CN4CCN(S(C)(=O)=O)CC4)cn3n2)cn1 [CYH33, methyl (5-(6-((4-(methylsulfonyl)piperazin-1-yl)methyl)−4-morpholinopyrrolo[2,1-f][1,2,4]triazin-2-yl)−4-(trifluoromethyl)pyridin-2-yl)carbamate]",plasma protein binding (PPB),[1],97.5%
same,inhibition of CYP2C9,CYP2C9,did not inhibit
same,FBG levels,[2],dose-dependent increase in FBG levels
same,inhibition of CYP1A2,CYP1A2,did not inhibit
same,inhibition of CYP3A4,CYP3A4,did not inhibit
same,plasma protein binding (PPB),[3],97.1%
same,CHL chromosomal aberration assay result,CHL,negative
same,inhibition of CYP2C19,CYP2C19,did not inhibit
same,Solubility,[4]; in H2O,1210 µg/mL
same,"Solubility, pH dependent",[4]; pH <3,High solubility at pH <3
